US6828139B2, “Production of replicative hepatitis C virus” (priority 2000, dated 2004)
Where a name gives a salt, the structure may show the parent alone.

System: HCV (−) RNA synthesis
Test: HCV (−) strand RNA synthesis in the inducible HCV replication system, RNase protection assay
Assay type: cell-based, hepatitis C virus (genotype 1a, strain H77) in CV-1 cells
Parameters: inhibitory effect on HCV (−) RNA synthesis: dose or concentration left out as unconfirmed
Details: for results on HCV (−) RNA synthesis with changed time of addition: drug given 0 and 12 hours before vTF7-3 infection, compared with 20 hours

## NC12CC3CC(CC(C3)C1)C2 [amantadine, Amantadine-HCl]
Amantadine 1-100 μg/well, added 20 hours prior to vTF7-3 infection
  activity against HCV (−) strand synthesis: no activity
  results on HCV (−) RNA synthesis with changed time of addition: unchanged

## NC(=O)c1ncn([C@@H]2O[C@H](CO)[C@@H](O)[C@H]2O)n1 [ribavirin]
  results on HCV (−) RNA synthesis with changed time of addition: unchanged
ribavirin, added 20 hours prior to vTF7-3
  inhibitory effect on HCV (−) RNA synthesis: No inhibitory effect
